Data from patent US10450327B2, “Epidithiodioxopiperazine compound or its derivatives, and the use thereof” (priority 2011, dated 2019).

Assays:
HAECs = assay type: cell-based, human; details: up to 50 nM (100 nM for A4, A7, A9)
Method: For cell proliferation assay, HAECs were divided at a concentration of 4000 cells/well in a final volume of 100 μl onto a 96-well plate including a siRNA-transfection reagent mixture. After siRNA-transfected for 24 hours, the cells were serum-starved for 18 hours, and then placed in an EBM-2 basal medium supplemented with VEGF-A165 (25 ng/ml, Cat no. 293-VE, R&D systems) for additional 24 hours. The extent of cell proliferation was measured using a WST-1 cell proliferation assay kit (Roche Diagnostics, USA), and the number of cells was expressed as absorbance at 450 nm, which was averaged from 3 wells after subtracting the turbidity at 600 nm.
The cell migration assay was performed in a 24-well Transwell culture chamber (Costar; 8-μm pore size). The bottom of the filter was coated with gelatin B (1 mg/ml) and air-dried for 1 hour. HAECs (6×10^3) were added to upper chambers including siRNA-transfection complexes. After 24 hours, the siRNA-transfected HAECs were serum-starved overnight. A solution of VEGF-A (25 ng/ml) was prepared in a basal medium including 0.5% bovine serum albumin (BSA), and added to bottom chambers. The upper chamber wells were each filled with a basal medium including 0.5% BSA. The Transwell chamber was incubated for 8 hours under the condition of 37° C./5% carbon dioxide. After the incubation, the non-migrated cells at the top of the filter were removed, and the cells that migrated onto the bottom of filter were fixed and stained with 0.6% hematoxylin and 0.5% eosin. The stained cells were photographed and counted. The number of migrating cells was averaged from 3 wells.

[1] = tested on: yeast thioredoxin (Trx) / yeast thioredoxin reductase (TR) system; test: Peroxidase activity assay (hydrogen peroxide reduction), Trx/TR system; assay type: biochemical; details: 25 μM ETP compound, 30° C., NADPH oxidation at 340 nm
Method: The peroxidase activity assay for the epidithiodioxopiperazine derivatives according to the present invention (hereinafter, referred to as ETP compounds) was performed according to known methods [Korean Patent No. 10-0953326]. A standard peroxidase reaction for spectrophotometric assay was carried out using a 200 μl reaction mixture of 1 mM EDTA-containing 50 mM Hepes-NaOH buffer solution (pH 7.0) including 250 μM NADPH, 3 μM yeast thioredoxin (Trx), 1.5 μM yeast thioredoxin reductase (TR), 25 μM ETP compound and […] of hydrogen peroxide. For the comparison with a glutathione (GSH)-dependent peroxidase reaction, GSH (1 mM) and yeast glutathione reductase (GSH reductase; GR) (1 Unit) were added instead of yeast Trx and TR. Each reaction was initiated by adding hydrogen peroxide, and the NADPH oxidation was monitored for 12 minutes at 30° C. according to absorbance decrease at 340 nm using an Agilent UV8453 spectrophotometer (Hewlett Packard, USA). The initial reaction rate was calculated using the linear portion of the curve and expressed as the amount of NADPH oxidized per minute.
The chemical feature of the epidithiodioxopiperazine compound of the present invention or its derivatives is the intramolecular disulfide bridge present in the epidithiodioxopiperazine ring moiety. Cellular peroxidase reduces hydrogen peroxide utilizing the electrons derived from NADPH via two electron-transfer routes, that is, Trx/TR or GSH/GR, therefore, spectrophotometric assay was performed for the hydrogen peroxide-reducing activity in the presence of each system, and the results are shown in FIGS. 1 to 5.

[2] = tested on: balloon-injured rat carotid artery; test: Balloon-injury model of rat carotid artery; assay type: in vivo
Method: Animal experiments were performed in compliance with the guidelines of Institutional Animal Care and Use Committee (IACUC) of the Ewha Womans University. Balloon injury was created using an infiltrated 2 F Fogarty balloon catheter in the left common carotid artery as follows: after the ten-week-old male Sprague-Dawley rats were anaesthetized by isoflurane gas (N2O:O2/70%:30%) inhalation, the left external carotid artery was exposed, and its branches were electrocoagulated. A catheter was pushed 1 cm in through the transverse arteriotomy of the external carotid artery, and the endothelial denudation was achieved by three passes along the common carotid artery. After the catheter was removed, the punched area was sealed and the clapped common carotid artery was opened for resuming the blood flow. Unless otherwise stated, the rats were recovered in a cage for 10 days, and subjected to histological and immunological analyses.
Rats were anesthetized, and the common carotid artery was excised after transcardiac perfusion-fixation with a heparinized saline solution containing 3.7% formaldehyde. The vessels were paraffin embedded and sectioned using a rotary microtome (Leica RM2255). Two serial tissue sections (4 μm in thickness) were obtained from the middle area of common carotid arteries, and stained with haematoxylin and eosin (HE). The luminal, internal elastic laminal, and external elastic laminal areas were measured using NIH Image v1.62. The intimal and medial areas were determined by subtracting the luminal area from the internal elastic area and subtracting the internal elastic area from the external elastic area. The values from the two serial sections for each rat were averaged for analysis.
For the in vivo injection of siRNA, a siRNA mixture specific to rat PrxII (200 nM) was premixed with a siPORT™ NeoFX™ reagent according to the instructions of the manufacturer (Ambion). Immediately after the balloon injury, the siRNA-injected mixture (200 μL) was injected through a catheter after briefly washed with Opti-MEM. After the incubation for 15 minutes, the blood flow was resumed. A siGLO-Red (Dharmacon), which is fluorescent dye-conjugated control siRNA, was used for optimizing in vivo injection efficiency. Similarly, the ETP compound (200 nM in DMSO) was injected through a catheter and incubated for 30 minutes.
Immunohistochemistry for the overoxidized 2-Cys Prxs was performed on the paraffin sections using an anti-Prx-SO2/3 antibody (1:1000 dilution). Briefly, the sections were de-waxed in xylene and rehydrated in ethanol, and subsequently the antigen retrieval was performed by boiling in a citric buffer solution (pH 6.0). After that, the sections were incubated with a primary antibody for 48 hours at 4° C. After washing three times with a phosphatebuffered saline solution, the sections were incubated with a peroxidase-conjugated secondary antibody and stained with a 3′,3′-diaminobenzidine (DAB) substrate solution. For negative staining, the Prx-502/3 antibody was blocked with the corresponding antigenic peptide (DFTFVC(SO2/3)PTEI). For indirect immunofluorescence staining, the paraffin sections were blocked with 5% normal rabbit serum (Vector Laboratories) in PBST (a PBS solution of 0.3% Triton X-100) for 1 hour at room temperature. The sections were then incubated overnight at 4° C. with the […] against rat smooth muscle α-actin (1:300 dilution) and rat CD31 (PECAM-1, 1:200 dilution). The nuclei were labeled with DAPI. After several PBST washes, the samples were incubated for 2 hours at room temperature with Alexa Fluor 568-conjugated donkey anti-mouse and Alexa Fluor 488-conjugated donkey anti-rabbit IgG antibodies. The fluorescence images were recorded on three random fields per tissue section at a screen magnification of 100× using a LSM 510 Meta confocal microscope equipped with argon and helium-neon lasers.
The paraffin sections were incubated for 10 minutes in PBS containing 0.1% Triton X-100. […]

For `CN1C(=O)[C@]23CC4=CC=C[C@H](O)[C@H]4N2C(=O)[C@@]1(CO)SS3` [gliotoxin], the “VEGF-induced proliferation and chemotactic transmigration of HAECs, impaired by PrxII knockdown” value (HAECs) was “enhancement”, the “hydrogen peroxide-reducing activity in the presence of a Trx/TR system” value [1] was 3.72 ± 0.53 nmol/min and the “endothelial repair / reendothelialization (CD31 immunofluorescence)” value ([2]; local administration after balloon injury) was “endothelium monolayer in contact with lumen was formed”. For the same molecule, the “intimal hyperplasia (ratio of intima versus media, HE staining)” value ([2]; local administration to the lumen through catheter, 30 minutes, ETP derivatives 200 nM, 10 days recovery) was “notably suppressed”, the “cell death by TUNEL staining” value ([2]; nanomolar range, local administration) was “did not induce cell death” and the “luminal surface endothelial cells by scanning electron microscopy” value ([2]; rat, in vivo) was “spread and formed a uniform layer with tight junction”. For the same molecule, the “overoxidation of 2-Cys-Prx (Prx-SO2/3 immunohistochemistry) versus control group” value ([2]; rat, in vivo) was “no significant differences”.
